Experiments:
Format in all cases: cell-based
[1] = tested on: SCC-25 cells (human tongue squamous cell carcinoma cells); test: Proliferation assay (alamarBlue) with SCC-25 cells; conditions: Homo sapiens, read-out: Activity Range: weighted arithmetic mean (AVEw) of normalized fluorescence intensity relative to DMSO basis level 1.0
Excerpt: (§1) The antiproliferative activities of compounds falling under formula (Ia), (Tb) and (Ic), respectively, were investigated on cells or cell lines originating from a disorder of the haematopoietic system, including the myeloid cell compartment and the lymphoid cell compartment (T-cells and B-cells), the neuroendocrine system, the cervix, the breast, the ovaries, the lung, the gastrointestinal tract, and the mucosal epithelium, as well as from the skin epithelium and from the muscle. To this end, HL-60 cells, NB-4 cells, HH cells, RPMI-8402 cells, TANOUE cells, TT cells, HeLa cells, MDA-MB-231 cells, FU-OV-1 cells, LOU-NH91 cells, 23132/87 cells, CAL-27 cells, BHY cells, SCC-25 cells, A-431 cells, human primary epidermal keratinocytes (HPEK), and C2C12 cells were seeded into 96-well plates suitable for fluorescence assays (CORNING #3598) at following initial cell numbers: 1000 cells per well for HL-60; 1000 cells per well for NB-4; 5000 cells per well for HH; 5000 cells per well for RPMI-8402; 1500 cells per well for TANOUE; 9000 cells per well for TT; 2000 cells per well for HeLa; 3000 cells per well for MDA-MB-231; 3000 cells per well for FU-OV-1; 4000 cells per well for LOU-NH91; 2000 cells per well for 23132/87; 2000 cells per well for CAL-27; 1500 cells per well for BHY; 1500 cells per well for SCC-25; 700 cells per well for A-431; 1000 cells per well for HPEK; 500 cells per well for C2-C12. The cells were treated with compounds at indicated final concentrations (diluted from the 1000× stock-solutions in DMSO to a final DMSO concentration of 0.1% v/v in H2O (Water For Injection, WFI, Fisherscientific #10378939)) or with the empty carrier DMSO at 0.1% v/v as control for 5 days. At day 5 after starting the treatments the cells were subjected to the alamarBlue® Proliferation Assay (Bio-Rad Serotec GmbH, BUF012B) according to the protocol of the manufacturer. The readout was taken with a multi-well plate-reader in the fluorescence mode with applying a filter for excitation at 560 nm (band width 10 nm) and for emission at 590 nm (band width 10 nm). Control treatments for growth inhibition with commercial compounds such as Methotrexate (MTREX) and Resveratrol (RES) were included on every plate. Some of the test compounds of the present invention were obtained and applied as their salts. According cases are indicated in the column “Specification” in Table 30 to Table 62 and by their sum formula in Table 63.
(§2) The assays were performed in duplicate or more replicates of independent single experiments each containing a six-fold replicate for every condition. For every individual plate, the measured fluorescence intensity values of the conditions with compound treatment were normalized against the corresponding equally weighted arithmetic mean of the fluorescence intensity values of the six DMSO treated control wells in order to obtain the relative values to a baseline level of 1.0.
(§3) Two independent outlier analyses were performed according to the methods by Peirce and Chauvenet (Ross, Journal of Engineering Technology 2003, 1-12). Outliers confirmed by at least one of the methods were excluded from the calculations but not more than one value out of six per compound within a single experiment. The weighted arithmetic mean (here abbreviated as AVEw) for each compound was calculated from the normalized values over all independent replicates of the single experiments comprising the six replicates each. The corresponding standard deviation for the weighted arithmetic mean was calculated according to the method described by Bronstein et al. (Bronstein, Semendjajew, Musiol, Muhlig, Taschenbuch der Mathematik, 5th edition 2001 (German), publisher: Verlag Harri Deutsch, Frankfurt am Main and Thun) and was combined with the Gauβ′ error propagation associated with the performed calculation for the normalization. The resulting standard deviation is herein referred to as “combined standard deviation”. […]

[2] = tested on: TT cells (human medullary thyroid carcinoma cells); test: Proliferation assay (alamarBlue) with TT cells; conditions: compound at 20 μM
Excerpt: (§4) The antiproliferative activities of compounds falling under formula (Ia), (Tb) and (Ic), respectively, were investigated on cells or cell lines originating from a disorder of the haematopoietic system, including the myeloid cell compartment and the lymphoid cell compartment (T-cells and B-cells), the neuroendocrine system, the cervix, the breast, the ovaries, the lung, the gastrointestinal tract, and the mucosal epithelium, as well as from the skin epithelium and from the muscle. To this end, HL-60 cells, NB-4 cells, HH cells, RPMI-8402 cells, TANOUE cells, TT cells, HeLa cells, MDA-MB-231 cells, FU-OV-1 cells, LOU-NH91 cells, 23132/87 cells, CAL-27 cells, BHY cells, SCC-25 cells, A-431 cells, human primary epidermal keratinocytes (HPEK), and C2C12 cells were seeded into 96-well plates suitable for fluorescence assays (CORNING #3598) at following initial cell numbers: 1000 cells per well for HL-60; 1000 cells per well for NB-4; 5000 cells per well for HH; 5000 cells per well for RPMI-8402; 1500 cells per well for TANOUE; 9000 cells per well for TT; 2000 cells per well for HeLa; 3000 cells per well for MDA-MB-231; 3000 cells per well for FU-OV-1; 4000 cells per well for LOU-NH91; 2000 cells per well for 23132/87; 2000 cells per well for CAL-27; 1500 cells per well for BHY; 1500 cells per well for SCC-25; 700 cells per well for A-431; 1000 cells per well for HPEK; 500 cells per well for C2-C12. […] The readout was taken with a multi-well plate-reader in the fluorescence mode with applying a filter for excitation at 560 nm (band width 10 nm) and for emission at 590 nm (band width 10 nm). […]
as §2, with “1.0. […]” for “1.0.”

[3] = tested on: C2C12 cells (murine myoblast cells); test: Proliferation assay (alamarBlue) with C2C12 cells; conditions: Mus musculus, compound at 20 μM, read-out: Activity Range: weighted arithmetic mean (AVEw) of normalized fluorescence intensity, relative to DMSO basis level 1.0
Excerpt: as §1, §2, §3

[4] = tested on: HeLa cells (human cervical adenocarcinoma cells); test: Proliferation assay (alamarBlue) with HeLa cells; conditions: compound at 20 μM
Excerpt: as §4
as §2, with “1.0. […]” for “1.0.”

[5] = tested on: HH cells (human cutaneous T-cell lymphoma cells); test: Proliferation assay (alamarBlue) with HH cells; conditions: Table 34, compound at 20 μM, read-out: Activity Range (AVEw, weighted arithmetic mean of normalized fluorescence intensity, DMSO = 1.0)
Excerpt: as §1, §2, §3

[6] = tested on: CAL-27 cells (human tongue squamous cell carcinoma cells); test: Proliferation assay (alamarBlue) with CAL-27 cells; conditions: read-out: Activity Range: weighted arithmetic mean (AVEw) of normalized fluorescence intensity relative to DMSO basis level 1.0
Excerpt: as §1, §2, §3

[7] = tested on: MDA-MB-231 cells (human breast carcinoma cells); test: Proliferation assay (alamarBlue) with MDA-MB-231 cells; conditions: Homo sapiens, read-out: Activity Range: weighted arithmetic mean (AVEw) of normalized fluorescence intensity relative to DMSO basis level 1.0
Excerpt: as §1, §2, §3

[8] = tested on: 23132/87 cells (human gastric adenocarcinoma cells); test: Proliferation assay (alamarBlue) with 23132/87 cells; conditions: read-out: Activity Range: weighted arithmetic mean (AVEw) of normalized fluorescence intensity relative to DMSO basis level 1.0
Excerpt: as §1, §2, §3

[9] = tested on: HL-60 cells (human acute myeloid leukemia cells); test: Proliferation assay (alamarBlue) with HL-60 cells
Excerpt: as §1, §2, §3

[10] = tested on: RPMI-8402 cells (human T cell acute lymphoblastic leukemia cells); test: Proliferation assay (alamarBlue) with RPMI-8402 cells; conditions: Homo sapiens, read-out: Activity Range: weighted arithmetic mean (AVEw) of normalized fluorescence intensity relative to DMSO basis level 1.0
Excerpt: as §1, §2, §3

[11] = tested on: FU-OV-1 cells (human ovarian carcinoma cells); test: Proliferation assay (alamarBlue) with FU-OV-1 cells; conditions: 20 μM
Excerpt: as §4
as §2, with “1.0. […]” for “1.0.”

[12] = tested on: NB-4 cells (human acute promyelocytic leukemia cells); test: Proliferation assay (alamarBlue) with NB-4 cells
Excerpt: as §1, §2, §3

[13] = tested on: LOU-NH91 cells (human lung squamous cell carcinoma cells); test: Proliferation assay (alamarBlue) with LOU-NH91 cells; conditions: 20 μM
Excerpt: as §4
as §2, with “1.0. […]” for “1.0.”

[14] = tested on: A-431 cells (human epidermoid squamous cell carcinoma cells); test: Proliferation assay (alamarBlue) with A-431 cells
Excerpt: as §1, §2, §3

[15] = tested on: TANOUE cells (human B cell leukemia cells); test: Proliferation assay (alamarBlue) with TANOUE cells; conditions: Homo sapiens, B-cell, read-out: Activity Range: weighted arithmetic mean (AVEw) of normalized fluorescence intensity relative to DMSO basis level 1.0
Excerpt: as §1, §2, §3

[16] = tested on: BHY cells (human oral squamous cell carcinoma cells); test: Proliferation assay (alamarBlue) with BHY cells; conditions: read-out: Activity Range: weighted arithmetic mean (AVEw) of normalized fluorescence intensity relative to DMSO basis level 1.0
Excerpt: as §1, §2, §3

[17] = tested on: Notch signaling (human Notch1 receptor, hNotch1ΔE); test: Notch reporter assay (dual luciferase, HeLa cells transfected with hNotch1ΔE); conditions: 10 μM
Excerpt: The activation level of Notch signaling can be quantified in vitro reliably by measuring the expression levels of Notch specific target genes. This can be accomplished by the quantification of corresponding mRNA or protein of a particular Notch target gene. Alternatively, cells can be genetically modified to carry a luciferase gene as an artificial Notch target gene, which is expressed in dependence of Notch activity. In this setting, Notch signaling levels can be quantified by measuring the luciferase-derived bioluminescence values.
An according Notch-reporter assay, i.e. a luciferase-based luminescence readout, was used here to quantify the ability of the claimed compounds to augment Notch signaling in a cellular system. […] After 24 hours of transfection, the transfected cells were carefully detached from the dish using 0.5 mM EDTA in PBS and seeded into 96-well plates suitable for luminescence readouts (CORNING, #3610) at 10,000 cells per well. […] Directly after the lysis, first the Firefly and then the Renilla luciferase values were measured consecutively from the same well with a luminescence reader immediately after applying 15 μL per well each of the corresponding enzyme substrates needed to create the luminescence signals (Promega, Dual-Luciferase® Reporter Assay System, #E1910). […]

In the case of `CN(Cc1cnc2nc(N)nc(N)c2n1)c1ccc(C(=O)N[C@@H](CCC(=O)O)C(=O)O)cc1` [MTREX, Methotrexate, reference compound], the activity at 20 µM [1] is reported as 50 ± 10%, the “Activity Range: weighted arithmetic mean (AVEw) of normalized fluorescence intensity relative to DMSO basis level 1.0” value [2] is reported as 1.0 ± 0.0 and the activity at 20 µM [3] is reported as 10%. For the same molecule, the “Activity Range: weighted arithmetic mean (AVEw) of normalized fluorescence intensity relative to DMSO basis level 1.0” value [4] was 0.4 ± 0.0, the activity at 20 µM [5] was 40 ± 10% and the activity at 20 µM [6] was 10%. For the same molecule, the activity at 20 µM [7] was 60%, the activity at 20 µM [8] was 30% and the activity at 20 µM ([9]; Homo sapiens, Table 30, compound at 20 μM, read-out: Activity Range (AVEw, weighted arithmetic mean of normalized fluorescence intensity, DMSO = 1.0)) was 10 ± 10%. The “Activity Range (AVEw, weighted arithmetic mean of normalized fluorescence intensity, DMSO = 1.0)” value ([9]; Table 31, compound at 20 μM) was 0.1 ± 0.1, the activity at 20 µM [10] was 10% and the “Activity Range: weighted arithmetic mean (AVEw) of normalized fluorescence intensity relative to DMSO basis level 1.0” value [11] was 1 ± 0.0. For the same molecule, the activity at 20 µM ([12]; Homo sapiens, Table 32, compound at 20 μM, read-out: Activity Range (AVEw, weighted arithmetic mean of normalized fluorescence intensity, DMSO = 1.0)) was 10%, the “Activity Range (AVEw, weighted arithmetic mean of normalized fluorescence intensity, DMSO = 1.0)” value ([12]; Table 33, compound at 20 μM) was 0.1 ± 0.0 and the “Activity Range: weighted arithmetic mean (AVEw) of normalized fluorescence intensity relative to DMSO basis level 1.0” value [13] was 0.5 ± 0.1. For the same molecule, the activity at 20 µM ([14]; Homo sapiens, 20 μM, read-out: Activity Range: weighted arithmetic mean (AVEw) of normalized fluorescence intensity relative to DMSO basis level 1.0) was 20 ± 10%, the “Activity Range: weighted arithmetic mean (AVEw) of normalized fluorescence intensity relative to DMSO basis level 1.0” value ([14]; compound at 20 μM) was 0.2 ± 0.1 and the activity at 20 µM [15] was 10%. It also gave an activity at 20 µM [16] of 30%.
In the case of `O=Cc1ccc(Oc2ccc(C3CCCCC3)cc2)cc1` [XPA-0020], the “Activity Range: weighted arithmetic mean (AVEw) of double-normalized Notch-reporter luminescence, relative to DMSO basis level 1.0” value [17] is reported as 2.0 ≤ AVEw.
`C[C@H](NC(=O)Cc1cc(F)cc(F)c1)C(=O)N[C@H](C(=O)OC(C)(C)C)c1ccccc1` [DAPT] was tested, and the “Activity Range: weighted arithmetic mean (AVEw) of double-normalized Notch-reporter luminescence, relative to DMSO basis level 1.0” value [17] was 0.1 ± 0.0.
